Data: patent US20060234906A1, “Structure of a complex of retinoblastoma protein bound to e2f, and uses thereof” (priority 2002, published 2006)
Residues, ends and D or L forms follow the SMILES beside them.

Key:
RbAB [1] = biological target: T1, RbAB (Homo sapiens, UniProt P06400); experiment: RbAB
T1 construct: residues 372 to 589 of the A domain and 636 to 787 of the B domain; GST (with Prescission protease site) (N, cleaved yes); engineered thrombin site (LVPRGS) at the A-domain end of the A-B linker (C, cleaved yes); engineered thrombin site (LVPRGS) at the B-domain end of the A-B linker (N, cleaved yes); made in house; host or cells: E. coli
T1 sequence (P06400 whole entry, looked up): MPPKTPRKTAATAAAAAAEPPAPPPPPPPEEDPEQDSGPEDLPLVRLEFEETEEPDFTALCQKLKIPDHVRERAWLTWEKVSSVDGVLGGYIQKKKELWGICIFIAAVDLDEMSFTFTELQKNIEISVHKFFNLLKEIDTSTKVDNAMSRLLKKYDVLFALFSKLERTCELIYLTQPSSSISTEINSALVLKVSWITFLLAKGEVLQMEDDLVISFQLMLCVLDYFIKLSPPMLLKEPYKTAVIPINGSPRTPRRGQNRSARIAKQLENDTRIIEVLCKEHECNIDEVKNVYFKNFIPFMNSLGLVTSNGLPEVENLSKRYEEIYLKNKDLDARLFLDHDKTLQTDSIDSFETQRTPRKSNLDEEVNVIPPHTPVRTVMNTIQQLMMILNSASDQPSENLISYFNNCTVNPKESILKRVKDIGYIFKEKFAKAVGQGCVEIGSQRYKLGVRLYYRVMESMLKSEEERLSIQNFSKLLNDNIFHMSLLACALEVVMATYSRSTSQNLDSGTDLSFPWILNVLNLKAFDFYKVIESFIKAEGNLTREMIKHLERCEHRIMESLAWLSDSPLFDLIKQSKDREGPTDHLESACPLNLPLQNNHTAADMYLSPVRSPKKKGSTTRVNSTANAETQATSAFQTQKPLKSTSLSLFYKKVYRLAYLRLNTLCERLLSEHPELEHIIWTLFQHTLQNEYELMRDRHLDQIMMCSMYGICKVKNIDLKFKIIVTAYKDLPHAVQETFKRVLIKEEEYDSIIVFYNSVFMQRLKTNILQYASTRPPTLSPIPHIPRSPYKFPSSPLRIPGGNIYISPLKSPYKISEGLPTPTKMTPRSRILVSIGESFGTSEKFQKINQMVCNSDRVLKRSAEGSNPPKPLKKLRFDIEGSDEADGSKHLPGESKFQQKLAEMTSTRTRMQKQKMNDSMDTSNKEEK
Text: (§1) Table printed on a drawing sheet, FIG. 2B
(§2) The patent's description of the figure: FIG. 2.
(§3) First copying reader's note: Binding constants of E2F fragments to the Rb constructs RbAB and RbABC; the error is printed in the same cell as the value.
(§4) Where the first naming reader finds the target: head: RbAB

RbABC [2] = biological target: T2, RbABC (Homo sapiens, UniProt P06400); experiment: RbABC
T2 construct: His6-RbABC (RESIDUES 380-929); made in house; host or cells: E. coli
T2 sequence (P06400 whole entry, looked up): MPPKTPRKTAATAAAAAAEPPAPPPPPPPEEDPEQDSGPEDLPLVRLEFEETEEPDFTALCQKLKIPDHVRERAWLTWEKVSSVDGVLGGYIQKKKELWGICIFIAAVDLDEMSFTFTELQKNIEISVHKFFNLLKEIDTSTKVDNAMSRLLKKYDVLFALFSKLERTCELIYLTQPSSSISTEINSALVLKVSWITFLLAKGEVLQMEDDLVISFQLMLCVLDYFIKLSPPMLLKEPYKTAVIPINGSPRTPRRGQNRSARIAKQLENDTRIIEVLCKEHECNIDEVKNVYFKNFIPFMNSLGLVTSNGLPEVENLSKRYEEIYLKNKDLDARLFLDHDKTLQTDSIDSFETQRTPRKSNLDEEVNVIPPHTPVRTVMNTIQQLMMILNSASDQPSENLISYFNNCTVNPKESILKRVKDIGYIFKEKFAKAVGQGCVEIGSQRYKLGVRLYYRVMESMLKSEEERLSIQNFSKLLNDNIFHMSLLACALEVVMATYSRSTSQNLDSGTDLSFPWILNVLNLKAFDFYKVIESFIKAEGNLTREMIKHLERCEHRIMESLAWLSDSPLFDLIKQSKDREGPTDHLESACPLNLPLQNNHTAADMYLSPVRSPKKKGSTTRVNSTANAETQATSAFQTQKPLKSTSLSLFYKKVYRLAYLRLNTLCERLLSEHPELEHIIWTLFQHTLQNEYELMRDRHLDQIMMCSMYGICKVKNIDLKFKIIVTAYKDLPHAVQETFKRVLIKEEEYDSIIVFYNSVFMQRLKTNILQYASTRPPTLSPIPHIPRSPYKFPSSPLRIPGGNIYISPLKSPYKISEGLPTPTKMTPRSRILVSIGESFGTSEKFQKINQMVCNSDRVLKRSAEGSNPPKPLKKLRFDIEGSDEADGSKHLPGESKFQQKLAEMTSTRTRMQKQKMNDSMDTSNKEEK
Text: as §1, §2, §3
(§5) Where the first naming reader finds the target: head: RbABC

pRb = biological target: T3, pRb (Homo sapiens, UniProt P06400); experiment: Competition experiment (Ni column, SDS-PAGE): E2F(409-426) against E2F(243-437) for binding to pRb; conditions: qualitative competition experiment
T3 construct: His6-RbAB (residues 376-792); made in house
T3 sequence (P06400 376-792): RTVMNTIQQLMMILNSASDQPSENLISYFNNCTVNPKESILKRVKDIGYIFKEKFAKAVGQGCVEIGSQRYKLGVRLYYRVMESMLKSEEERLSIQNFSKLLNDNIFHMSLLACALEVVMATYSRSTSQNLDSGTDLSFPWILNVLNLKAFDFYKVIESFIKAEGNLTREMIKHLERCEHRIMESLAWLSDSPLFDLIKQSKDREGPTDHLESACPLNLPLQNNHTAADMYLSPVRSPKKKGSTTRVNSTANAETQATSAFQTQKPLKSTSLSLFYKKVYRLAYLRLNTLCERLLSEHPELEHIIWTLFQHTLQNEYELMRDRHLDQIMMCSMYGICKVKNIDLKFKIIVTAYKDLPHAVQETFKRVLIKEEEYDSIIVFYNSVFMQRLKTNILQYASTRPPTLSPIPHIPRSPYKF
Text: The proteins used in these experiments were His6-RbABC (RESIDUES 380-929); MW 66.07 kDa, non-tagged RbAB (residues 372-787); MW 48.67 KDa, are His6-RbAB (residues 376-792); MW 49.86 KDa, E2F(243-437); MW 21.45 KDa HPV E7 (residues 17-98); MW 9.38 KDa and E2F(409-426); MW 2.12 KDa. Protein concentrations were carefully determined by u.v. spectroscopy and confirmed by ITC titrations. The small acidic E2F proteins stain much weaker than Rb with Coomassie on SDS-PAGE. For all gel lanes contained a final RbAB concentration of ca. 7 μM. After equilibration with E2F(243-437) and E2F(409-426) the samples were loaded onto a 1.0 ml Ni column and washed with 7×0.5 ml of loading buffer (50 mM Tris pH 7.5, 200 mM NaCl & 10 mM Imidazole). The samples were then eluted with 7×0.5 ml elution buffer (50 mM Tris, pH 7.5, 200 mM NaCl, 200 mM Imidazole). After volume correction samples were boiled in SDS loading buffer and run on a 4-12% SDS PAGE. For the two pRb proteins and E2F(243-437) were mixed at 40 μM in a final volume of 0.5 ml. After equilibration for 2 hrs the mixture was loaded onto 1 ml Ni beads in a small column, washed with 7×0.5 ml of loading buffer (50 mM Tris, pH 7.5, 200 mM NaCl, 10 mM Imidazole), eluted using 7×0.5 ml elution buffer (50 mM Tris, pH 7.5, 200 mM NaCl, 200 mM Imidazole). Samples, after correcting for volume were boiled in SDS sample buffer and run on a 4-12% SDS gel.

RbAB [3] = biological target: T4, RbAB (Homo sapiens, UniProt P06400); experiment: RbAB; remark: listed apart in the source
T4 construct: residues 372 to 589 of the A domain and 636 to 787 of the B domain; GST (with Prescission protease site) (N, cleaved yes); engineered thrombin site (LVPRGS) at the A-domain end of the A-B linker (C, cleaved yes); engineered thrombin site (LVPRGS) at the B-domain end of the A-B linker (N, cleaved yes); made in house; host or cells: E. coli
Text: as §1, §2, §3, §4

pRb/Fl-E7 = biological target: T5, pRb/Fl-E7 (Homo sapiens, UniProt P06400); experiment: Fluorescence polarization displacement binding, Fl-E7 bound to pRb; conditions: fluoro-tagged peptide 400 nM pre-incubated with pRb 1 μM
T5 sequence (P06400 373-771 limits assumed): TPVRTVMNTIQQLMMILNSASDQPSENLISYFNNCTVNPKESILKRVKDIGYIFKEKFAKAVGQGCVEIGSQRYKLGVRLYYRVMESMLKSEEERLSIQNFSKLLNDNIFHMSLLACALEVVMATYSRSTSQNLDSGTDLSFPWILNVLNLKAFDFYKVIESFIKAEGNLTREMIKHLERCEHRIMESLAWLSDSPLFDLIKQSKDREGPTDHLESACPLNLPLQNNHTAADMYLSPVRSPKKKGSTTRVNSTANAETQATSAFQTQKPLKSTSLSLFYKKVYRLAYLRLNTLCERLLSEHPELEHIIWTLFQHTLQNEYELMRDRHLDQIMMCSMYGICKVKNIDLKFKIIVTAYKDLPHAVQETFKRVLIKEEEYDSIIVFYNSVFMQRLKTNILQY
Description: (§6) Fluoro-tagged peptide (400 nM) was pre-incubated with pRb (1 μM ) and unlabelled peptide added at the concentrations shown. Displacement binding curves were plotted (FIG. 4a), and were fitted to a one site competition binding model using Graphpad prism curve fitting software.

RbABC [4] = biological target: T6, RbABC (Homo sapiens, UniProt P06400); experiment: RbABC; remark: listed apart in the source
T6 construct: His6-RbABC (RESIDUES 380-929); made in house; host or cells: E. coli
Text: as §1, §2, §3, §5

pRb/Fl-E2F = biological target: T7, pRb/Fl-E2F (Homo sapiens, UniProt P06400); experiment: Fluorescence polarization displacement binding, Fl-E2F bound to pRb; conditions: fluoro-tagged peptide 400 nM pre-incubated with pRb 1 μM
T7 sequence (P06400 373-771 limits assumed): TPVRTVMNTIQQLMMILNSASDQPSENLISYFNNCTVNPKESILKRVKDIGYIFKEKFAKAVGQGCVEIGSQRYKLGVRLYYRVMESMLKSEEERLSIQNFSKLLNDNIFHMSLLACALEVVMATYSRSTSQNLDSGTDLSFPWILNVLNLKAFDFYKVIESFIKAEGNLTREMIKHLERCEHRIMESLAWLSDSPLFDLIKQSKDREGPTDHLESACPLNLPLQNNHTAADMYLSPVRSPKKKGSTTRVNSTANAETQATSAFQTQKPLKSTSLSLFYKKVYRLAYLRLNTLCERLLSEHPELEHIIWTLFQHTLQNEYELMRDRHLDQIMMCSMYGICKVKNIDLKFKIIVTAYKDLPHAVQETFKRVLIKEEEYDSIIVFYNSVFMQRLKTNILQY
Description: as §6

| Kd (RbAB [1]) [nM] | Kd (RbABC [2]) [nM] | molar excess required to 50% compete with E2F(243-437) for binding to pRb (pRb) | Kd (RbAB [3]) [nM] | displacement of Fl-E7 from pRb (pRb/Fl-E7) | Kd (RbABC [4]) [nM] | displacement of Fl-E2F from pRb (pRb/Fl-E2F) | Compound |
| --- | --- | --- | --- | --- | --- | --- | --- |
| 160 ± 10 | 100 ± 10 | – | – | – | – | – | E2F(380-437): Synthetic peptide of E2F residues 380-437 (ADSLLEHVREDFSGLLPEEFISLSPPHEALDYHFGLEEGEGIRDLFDCDFGDLTPLDF; UniProt Q01094 380-437, looked up, fragment) |
| – | – | 15-to 30 fold | 340 ± 20 | without disrupting F1-E7 binding | 300 ± 30 | displace Fl-E2F | CC[C@H](C)[C@H](NC(=O)CNC(=O)[C@H](CCC(=O)O)NC(=O)CNC(=O)[C@H](CCC(=O)O)NC(=O)[C@H](CCC(=O)O)NC(=O)[C@H](CC(C)C)NC(=O)CNC(=O)[C@H](Cc1ccccc1)NC(=O)[C@H](Cc1c[nH]cn1)NC(=O)[C@H](Cc1ccc(O)cc1)NC(=O)[C@H](CC(=O)O)NC(=O)[C@@H](N)CC(C)C)C(=O)N[C@@H](CCCNC(=N)N)C(=O)N[C@@H](CC(=O)O)C(=O)N[C@@H](CC(C)C)C(=O)N[C@@H](Cc1ccccc1)C(=O)N[C@@H](CC(=O)O)C(=O)O [E2F(409-426)] (H-LDYHFGLEEGEGIRDLFD-OH) |
